Molecular target: Bile salt export pump (Homo sapiens, UniProt O95342)
Test: TP_TRANSPORTER: Western in vitro, primary human hepatocyte
Assay type: functional, cell-based
Settings: hepatocytes

Bile salt export pump, sequence (O95342 whole entry): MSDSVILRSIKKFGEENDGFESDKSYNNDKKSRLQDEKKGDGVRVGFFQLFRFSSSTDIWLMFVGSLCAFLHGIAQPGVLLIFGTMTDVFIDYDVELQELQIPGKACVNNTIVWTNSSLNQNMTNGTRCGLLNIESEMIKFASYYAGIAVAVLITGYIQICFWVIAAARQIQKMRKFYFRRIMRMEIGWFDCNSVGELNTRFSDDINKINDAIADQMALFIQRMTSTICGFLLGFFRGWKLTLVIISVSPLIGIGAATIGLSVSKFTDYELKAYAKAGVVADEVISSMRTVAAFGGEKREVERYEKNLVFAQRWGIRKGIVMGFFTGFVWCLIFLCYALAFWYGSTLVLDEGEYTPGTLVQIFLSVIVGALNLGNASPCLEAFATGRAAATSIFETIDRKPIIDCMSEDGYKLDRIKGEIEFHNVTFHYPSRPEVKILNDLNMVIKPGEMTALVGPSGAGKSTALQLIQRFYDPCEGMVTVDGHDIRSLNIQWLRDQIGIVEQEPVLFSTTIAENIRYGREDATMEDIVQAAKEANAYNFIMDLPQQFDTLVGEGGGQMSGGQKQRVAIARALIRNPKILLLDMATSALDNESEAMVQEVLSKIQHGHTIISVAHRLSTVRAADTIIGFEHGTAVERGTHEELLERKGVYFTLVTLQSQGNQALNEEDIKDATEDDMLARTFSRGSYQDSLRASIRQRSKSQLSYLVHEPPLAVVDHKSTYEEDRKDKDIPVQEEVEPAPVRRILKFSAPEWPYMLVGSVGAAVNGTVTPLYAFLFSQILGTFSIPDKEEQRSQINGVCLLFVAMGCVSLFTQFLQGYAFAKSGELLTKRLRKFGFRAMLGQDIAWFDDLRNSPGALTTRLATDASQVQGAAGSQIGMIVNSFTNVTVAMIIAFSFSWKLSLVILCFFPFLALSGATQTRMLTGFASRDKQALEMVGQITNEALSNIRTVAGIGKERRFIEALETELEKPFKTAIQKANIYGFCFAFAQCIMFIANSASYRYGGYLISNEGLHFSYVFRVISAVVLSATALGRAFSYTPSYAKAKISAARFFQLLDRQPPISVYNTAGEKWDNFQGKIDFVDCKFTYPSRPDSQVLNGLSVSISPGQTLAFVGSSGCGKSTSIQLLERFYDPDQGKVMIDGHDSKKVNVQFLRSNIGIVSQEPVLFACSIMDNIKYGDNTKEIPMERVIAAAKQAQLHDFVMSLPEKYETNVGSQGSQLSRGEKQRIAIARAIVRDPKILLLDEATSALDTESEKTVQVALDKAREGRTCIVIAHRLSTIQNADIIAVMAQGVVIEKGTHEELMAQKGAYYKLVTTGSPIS

Row | SMILES | Activity
1 | C[C@H](CCC(=O)O)[C@H]1CC[C@H]2[C@@H]3[C@H](O)C[C@@H]4C[C@H](O)CC[C@]4(C)[C@H]3CC[C@]12C [CHENODIOL] | inducer [+]
2 | C[C@H](CCC(=O)O)[C@H]1CC[C@H]2[C@@H]3CC[C@@H]4C[C@H](O)CC[C@]4(C)[C@H]3C[C@H](O)[C@]12C [DEOXYCHOLIC ACID] | inducer [+]
